Key:
Format in all cases: in vivo
wild oat [1] = experiment: Test Example 3: weedkilling efficacy through soil treatment; G: wild oat; conditions: treatment dosage 315 g/ha
How it was run: (§1)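 Crop and weed responses were judged three weeks after a uniform surface spray of the water-diluted emulsion at the given g/ha rate. Seeds sat beneath about 1.5 cm of sterilized diluvial soil, and boxes stood in a greenhouse at 25 to 30° C.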

fig-leafed goosefoot [2] = experiment: Test Example 3: weedkilling efficacy through soil treatment; M: fig-leafed goosefoot; conditions: treatment dosage 315 g/ha
How it was run: as §1

soybean [3] = experiment: Test Example 3: soil treatment, effect on crop; d: soybean; conditions: treatment dosage 315 g/ha
How it was run: as §1

redroot pigweed [4] = experiment: Test Example 4: weedkilling efficacy by foliar treatment; L: redroot pigweed; conditions: treatment dosage 315 g/ha
How it was run: (§2)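 Seeds are spot-sown into sterilized diluvial soil and covered with about 1.5 cm of soil. After 14 days' greenhouse growth at 25 to 30° C, plants are sprayed on stems and leaves with diluted emulsion at the stated g/ha rate, then scored at 3 weeks.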

chickweed [5] = experiment: Test Example 3: weedkilling efficacy through soil treatment; N: chickweed; conditions: treatment dosage 315 g/ha
How it was run: as §1

catchweed [6] = experiment: Test Example 4: weedkilling efficacy by foliar treatment; O: catchweed; conditions: treatment dosage 315 g/ha
How it was run: as §2

catchweed [7] = experiment: Test Example 3: weedkilling efficacy through soil treatment; O: catchweed; conditions: treatment dosage 315 g/ha
How it was run: as §1

crabgrass [8] = experiment: Test Example 3: weedkilling efficacy through soil treatment; D: crabgrass; conditions: treatment dosage 315 g/ha
How it was run: as §1

green foxtail [9] = experiment: Test Example 3: weedkilling efficacy through soil treatment; E: green foxtail; conditions: treatment dosage 315 g/ha
How it was run: as §1

beet [10] = experiment: Test Example 3: soil treatment, effect on crop; f: beet; conditions: treatment dosage 315 g/ha
How it was run: as §1

directly sown rice [11] = experiment: Test Example 4: foliar treatment, effect on crop; b: directly sown rice; conditions: treatment dosage 315 g/ha
How it was run: as §2

Italian ryegrass [12] = experiment: Test Example 4: weedkilling efficacy by foliar treatment; I: Italian ryegrass; conditions: treatment dosage 315 g/ha
How it was run: as §2

crabgrass [13] = experiment: Test Example 4: weedkilling efficacy by foliar treatment; D: crabgrass; conditions: treatment dosage 315 g/ha
How it was run: as §2

corn [14] = experiment: Test Example 3: soil treatment, effect on crop; c: corn; conditions: treatment dosage 315 g/ha
How it was run: as §1

wheat [15] = experiment: Test Example 4: foliar treatment, effect on crop; e: wheat; conditions: treatment dosage 315 g/ha
How it was run: as §2

beet [16] = experiment: Test Example 4: foliar treatment, effect on crop; f: beet; conditions: treatment dosage 315 g/ha
How it was run: as §2

black-grass [17] = experiment: Test Example 4: weedkilling efficacy by foliar treatment; H: black-grass; conditions: treatment dosage 315 g/ha
How it was run: as §2

soybean [18] = experiment: Test Example 4: foliar treatment, effect on crop; d: soybean; conditions: treatment dosage 315 g/ha
How it was run: as §2

directly sown rice [19] = experiment: Test Example 3: soil treatment, effect on crop; b: directly sown rice; conditions: treatment dosage 315 g/ha
How it was run: as §1

green foxtail [20] = experiment: Test Example 4: weedkilling efficacy by foliar treatment; E: green foxtail; conditions: treatment dosage 315 g/ha
How it was run: as §2

Indian mallow [21] = experiment: Test Example 3: weedkilling efficacy through soil treatment; K: Indian mallow; conditions: treatment dosage 315 g/ha
How it was run: as §1

birds-eye speedwell [22] = experiment: Test Example 3: weedkilling efficacy through soil treatment; p: birds-eye speedwell; conditions: treatment dosage 315 g/ha
How it was run: as §1

Indian mallow [23] = experiment: Test Example 4: weedkilling efficacy by foliar treatment; K: Indian mallow; conditions: treatment dosage 315 g/ha
How it was run: as §2

fig-leafed goosefoot [24] = experiment: Test Example 4: weedkilling efficacy by foliar treatment; M: fig-leafed goosefoot; conditions: treatment dosage 315 g/ha
How it was run: as §2

corn [25] = experiment: Test Example 4: foliar treatment, effect on crop; c: corn; conditions: treatment dosage 315 g/ha
How it was run: as §2

wild oat [26] = experiment: Test Example 4: weedkilling efficacy by foliar treatment; G: wild oat; conditions: treatment dosage 315 g/ha
How it was run: as §2

birds-eye speedwell [27] = experiment: Test Example 4: weedkilling efficacy by foliar treatment; p: birds-eye speedwell; conditions: treatment dosage 315 g/ha
How it was run: as §2

redroot pigweed [28] = experiment: Test Example 3: weedkilling efficacy through soil treatment; L: redroot pigweed; conditions: treatment dosage 315 g/ha
How it was run: as §1

black-grass [29] = experiment: Test Example 3: weedkilling efficacy through soil treatment; H: black-grass; conditions: treatment dosage 315 g/ha
How it was run: as §1

Italian ryegrass [30] = experiment: Test Example 3: weedkilling efficacy through soil treatment; I: Italian ryegrass; conditions: treatment dosage 315 g/ha
How it was run: as §1

wheat [31] = experiment: Test Example 3: soil treatment, effect on crop; e: wheat; conditions: treatment dosage 315 g/ha
How it was run: as §1

chickweed [32] = experiment: Test Example 4: weedkilling efficacy by foliar treatment; N: chickweed; conditions: treatment dosage 315 g/ha
How it was run: as §2

bulrush [33] = experiment: Test Example 2: weedkilling efficacy, growth period weed treatment in the submerged state; B: bulrush; conditions: treatment dosage 252 g/ha
How it was run: (§3)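 Seedlings at 1-2 leaves in 4 cm-deep submerged alluvial soil received emulsion formulations on the water surface, dosed per hectare; effects were judged 3 weeks on.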

barnyard grass [34] = experiment: Test Example 2: weedkilling efficacy, growth period weed treatment in the submerged state; A: barnyard grass; conditions: treatment dosage 252 g/ha
How it was run: as §3

barnyard grass [35] = experiment: Test Example 1: weedkilling efficacy, preemergent weed treatment in the submerged state; A: barnyard grass; conditions: treatment dosage 252 g/ha
How it was run: (§4)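 Submerged pre-emergence treatment, water-surface application of compound emulsion at g/ha dosages; 4 cm flooded alluvial soil, weeds sown and 2.5-leaf rice transplanted same day. Rated after 3 weeks, greenhouse.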

oval-leafed pondweed [36] = experiment: Test Example 2: weedkilling efficacy, growth period weed treatment in the submerged state; C: oval-leafed pondweed; conditions: treatment dosage 252 g/ha
How it was run: as §3

transplanted rice = experiment: Test Example 1: preemergent weed treatment in the submerged state, effect on crop; a: transplanted rice; conditions: treatment dosage 252 g/ha
How it was run: as §4

oval-leafed pondweed [37] = experiment: Test Example 1: weedkilling efficacy, preemergent weed treatment in the submerged state; C: oval-leafed pondweed; conditions: treatment dosage 252 g/ha
How it was run: as §4

bulrush [38] = experiment: Test Example 1: weedkilling efficacy, preemergent weed treatment in the submerged state; B: bulrush; conditions: treatment dosage 252 g/ha
How it was run: as §4

Row | SMILES | G (wild oat) weedkilling efficacy grade (wild oat [1]) | M (fig-leafed goosefoot) weedkilling efficacy grade (fig-leafed goosefoot [2]) | d (soybean) effect on crop grade (soybean [3]) | L (redroot pigweed) weedkilling efficacy grade (redroot pigweed [4]) | N (chickweed) weedkilling efficacy grade (chickweed [5]) | O (catchweed) weedkilling efficacy grade (catchweed [6]) | O (catchweed) weedkilling efficacy grade (catchweed [7]) | D (crabgrass) weedkilling efficacy grade (crabgrass [8]) | E (green foxtail) weedkilling efficacy grade (green foxtail [9]) | f (beet) effect on crop grade (beet [10]) | b (directly sown rice) effect on crop grade (directly sown rice [11]) | I (Italian ryegrass) weedkilling efficacy grade (Italian ryegrass [12]) | D (crabgrass) weedkilling efficacy grade (crabgrass [13]) | c (corn) effect on crop grade (corn [14]) | e (wheat) effect on crop grade (wheat [15]) | f (beet) effect on crop grade (beet [16]) | H (black-grass) weedkilling efficacy grade (black-grass [17]) | d (soybean) effect on crop grade (soybean [18]) | b (directly sown rice) effect on crop grade (directly sown rice [19]) | E (green foxtail) weedkilling efficacy grade (green foxtail [20]) | other results
1 | CC1=C(c2cccnc2F)C(=O)N(C(C)(C)C(=O)Nc2cc(C(F)(F)F)ccn2)CO1 [B-2-17, 2-[5-(2-fluoropyridin-3-yl)-6-methyl-4-oxo-2H-1,3-oxazin-3(4H)-yl]-2-methyl-N-[4-(trifluoromethyl)pyridin-2-yl] propionamide] | 5 (weed kill ratio 90% or more, (practically complete withering)) | 3 (weed kill ratio 40% or more, less than 70%) | 2 (weed kill ratio 20% or more, less than 40%) | 3 (weed kill ratio 40% or more, less than 70%) | 3 (weed kill ratio 40% or more, less than 70%) | 0 (weed kill ratio 5% or less (practically no effect)) | 1 (weed kill ratio 5% or more, less than 20%) | 5 (weed kill ratio 90% or more, (practically complete withering)) | 5 (weed kill ratio 90% or more, (practically complete withering)) | 0 (weed kill ratio 5% or less (practically no effect)) | 5 (weed kill ratio 90% or more, (practically complete withering)) | 5 (weed kill ratio 90% or more, (practically complete withering)) | 5 (weed kill ratio 90% or more, (practically complete withering)) | 2 (weed kill ratio 20% or more, less than 40%) | 0 (weed kill ratio 5% or less (practically no effect)) | 2 (weed kill ratio 20% or more, less than 40%) | 4 (weed kill ratio 70% or more, less than 90%) | 0 (weed kill ratio 5% or less (practically no effect)) | 4 (weed kill ratio 70% or more, less than 90%) | 5 (weed kill ratio 90% or more, (practically complete withering)) | K (Indian mallow) weedkilling efficacy grade (Indian mallow [21]): 2 (weed kill ratio 20% or more, less than 40%); P (birds-eye speedwell) weedkilling efficacy grade (birds-eye speedwell [22]): 5 (weed kill ratio 90% or more, (practically complete withering)); K (Indian mallow) weedkilling efficacy grade (Indian mallow [23]): 1 (weed kill ratio 5% or more, less than 20%); M (fig-leafed goosefoot) weedkilling efficacy grade (fig-leafed goosefoot [24]): 2 (weed kill ratio 20% or more, less than 40%); c (corn) effect on crop grade (corn [25]): 3 (weed kill ratio 40% or more, less than 70%); G (wild oat) weedkilling efficacy grade (wild oat [26]): 4 (weed kill ratio 70% or more, less than 90%); P (birds-eye speedwell) weedkilling efficacy grade (birds-eye speedwell [27]): 2 (weed kill ratio 20% or more, less than 40%); L (redroot pigweed) weedkilling efficacy grade (redroot pigweed [28]): 2 (weed kill ratio 20% or more, less than 40%); H (black-grass) weedkilling efficacy grade (black-grass [29]): 5 (weed kill ratio 90% or more, (practically complete withering)); I (Italian ryegrass) weedkilling efficacy grade (Italian ryegrass [30]): 5 (weed kill ratio 90% or more, (practically complete withering)); e (wheat) effect on crop grade (wheat [31]): 1 (weed kill ratio 5% or more, less than 20%); N (chickweed) weedkilling efficacy grade (chickweed [32]): 2 (weed kill ratio 20% or more, less than 40%)
2 | CC1=C(c2ccccc2)C(=O)N(C(C)(C)C(=O)Nc2cc(Br)ccn2)CO1 [B-2-30] | 5 (weed kill ratio 90% or more, (practically complete withering)) | 5 (weed kill ratio 90% or more, (practically complete withering)) | 1 (weed kill ratio 5% or more, less than 20%) | 4 (weed kill ratio 70% or more, less than 90%) | 4 (weed kill ratio 70% or more, less than 90%) | 4 (weed kill ratio 70% or more, less than 90%) | 5 (weed kill ratio 90% or more, (practically complete withering)) | 5 (weed kill ratio 90% or more, (practically complete withering)) | 5 (weed kill ratio 90% or more, (practically complete withering)) | 4 (weed kill ratio 70% or more, less than 90%) | 5 (weed kill ratio 90% or more, (practically complete withering)) | 4 (weed kill ratio 70% or more, less than 90%) | 5 (weed kill ratio 90% or more, (practically complete withering)) | 1 (weed kill ratio 5% or more, less than 20%) | 0 (weed kill ratio 5% or less (practically no effect)) | 4 (weed kill ratio 70% or more, less than 90%) | 3 (weed kill ratio 40% or more, less than 70%) | 4 (weed kill ratio 70% or more, less than 90%) | 4 (weed kill ratio 70% or more, less than 90%) | 5 (weed kill ratio 90% or more, (practically complete withering)) | B (bulrush) weedkilling efficacy grade (bulrush [33]): 5 (weed kill ratio 90% or more, (practically complete withering)); A (barnyard grass) weedkilling efficacy grade (barnyard grass [34]): 5 (weed kill ratio 90% or more, (practically complete withering)); A (barnyard grass) weedkilling efficacy grade (barnyard grass [35]): 5 (weed kill ratio 90% or more, (practically complete withering)); K (Indian mallow) weedkilling efficacy grade (Indian mallow [21]): 3 (weed kill ratio 40% or more, less than 70%); K (Indian mallow) weedkilling efficacy grade (Indian mallow [23]): 4 (weed kill ratio 70% or more, less than 90%); C (oval-leafed pondweed) weedkilling efficacy grade (oval-leafed pondweed [36]): 3 (weed kill ratio 40% or more, less than 70%); M (fig-leafed goosefoot) weedkilling efficacy grade (fig-leafed goosefoot [24]): 4 (weed kill ratio 70% or more, less than 90%); c (corn) effect on crop grade (corn [25]): 1 (weed kill ratio 5% or more, less than 20%); G (wild oat) weedkilling efficacy grade (wild oat [26]): 3 (weed kill ratio 40% or more, less than 70%); a (transplanted rice) effect on crop grade (transplanted rice): 1 (weed kill ratio 5% or more, less than 20%); P (birds-eye speedwell) weedkilling efficacy grade (birds-eye speedwell [27]): 4 (weed kill ratio 70% or more, less than 90%); L (redroot pigweed) weedkilling efficacy grade (redroot pigweed [28]): 3 (weed kill ratio 40% or more, less than 70%); H (black-grass) weedkilling efficacy grade (black-grass [29]): 5 (weed kill ratio 90% or more, (practically complete withering)); I (Italian ryegrass) weedkilling efficacy grade (Italian ryegrass [30]): 5 (weed kill ratio 90% or more, (practically complete withering)); e (wheat) effect on crop grade (wheat [31]): 0 (weed kill ratio 5% or less (practically no effect)); C (oval-leafed pondweed) weedkilling efficacy grade (oval-leafed pondweed [37]): 5 (weed kill ratio 90% or more, (practically complete withering)); N (chickweed) weedkilling efficacy grade (chickweed [32]): 3 (weed kill ratio 40% or more, less than 70%); B (bulrush) weedkilling efficacy grade (bulrush [38]): 5 (weed kill ratio 90% or more, (practically complete withering))

Reference: patent US9738634B2, “Heterocyclic amide compound and herbicide” (SYNGENTA PARTICIPATIONS AG, priority 2013, dated 2017)
